In ChEMBL document CHEMBL1129415, “Structure-activity relationship studies on benzofuran analogs of propafenone-type modulators of tumor cell multidrug resistance” (J Med Chem, 1996):
Calls of active or inactive are those of the source. The rule behind the calls is not given here.

Tests used:
[1] = Partition coefficient (logP); assay type: physicochemical; settings: octanol/water
CCRF-CEM [2] = assay: Effective dose against CCRF-CEM vcr 100 cells by using MTT assay; assay type: functional, Homo sapiens
CCRF-CEM [3] = system: CCRF-CEM
Description: Effective dose against CCRF-CEM vcr 100 cells by using rhodamine efflux studies.

CCRF-CEM [4] = assay: Compound was tested for effective dose against CCRF-CEM vcr 100 cells by using MTT assay; na=not active; assay type: functional, cell-based; settings: Homo sapiens
CCRF-CEM [5] = settings: Homo sapiens
Description: Compound was tested for effective dose against CCRF-CEM vcr 100 cells by using rhodamine efflux studies; na=not active

logP [1]	SMILES	ED50 (CCRF-CEM [2]) [nM]	ED50 (CCRF-CEM [3]) [uM l-1]	ED50 (CCRF-CEM [4])	ED50 (CCRF-CEM [5])
5.32	COc1ccccc1N1CCN(CC(O)c2oc3ccccc3c2CCc2ccccc2)CC1 (stereo not drawn)	210	0.46	–	–
2.54	O=C(CCc1ccccc1)c1ccccc1OCC(O)CN1CCOCC1 (stereo not drawn)	1490	13.56	–	–
3.62	CCN(CC)CC(O)COc1ccccc1C(=O)CCc1ccccc1 (stereo not drawn)	390	1.4	–	–
0.94	CCC(=O)c1ccccc1OCC(O)CN1CCOCC1 (stereo not drawn)	–	–	inactive	inactive
3.67	O=C(CCc1ccccc1)c1ccccc1OCC(O)CN1CCCCC1 (stereo not drawn)	290	1.65	–	–
3.77	CCCN(C)CC(O)COc1ccccc1C(=O)CCc1ccccc1 (stereo not drawn)	270	1.36	–	–
4.71	CCCNCCc1oc2ccccc2c1CCc1ccccc1	870	2.9	–	–
5.26	Cc1ccccc1N1CCN(CC(O)COc2ccccc2C(=O)CCc2ccccc2)CC1 (stereo not drawn)	50	0.06	–	–
5.05	COc1ccccc1N1CCN(CC(=O)c2oc3ccccc3c2CCc2ccccc2)CC1	2020	4.96	–	–
2.67	CC(=O)c1ccccc1OCC(O)CN1CCN(c2ccc(F)cc2)CC1 (stereo not drawn)	890	8.61	–	–
4.65	COc1ccc(N2CCN(CC(O)COc3ccccc3C(=O)CCc3ccccc3)CC2)cc1 (stereo not drawn)	110	0.28	–	–
4.07	CCCNCC(O)c1oc2ccccc2c1CCc1ccccc1 (stereo not drawn)	1800	13.61	–	–
4.54	CC(C)NCCc1oc2ccccc2c1CCc1ccccc1	1100	5.8	–	–
–	CCCNCC(O)COc1ccccc1C(=O)CCc1ccccc1 (stereo not drawn) [PROPAFENONE]	–	3.55	–	–
3.1	CCCNCC(O)c1oc2ccccc2c1CC (stereo not drawn)	4190	69.6	–	–
3.26	O=C(CCc1ccccc1)c1ccccc1OCC(O)CN1CCCC1 (stereo not drawn)	520	2.55	–	–
4.25	CC(C)N(CC(O)COc1ccccc1C(=O)CCc1ccccc1)C(C)C (stereo not drawn)	290	0.61	–	–
4.3	O=C(CCc1ccccc1)c1ccccc1OCC(O)CNCc1ccccc1 (stereo not drawn)	190	0.41	–	–
4.93	O=C(CCc1ccccc1)c1ccccc1OCC(O)CN1CCN(c2ccc(F)cc2)CC1 (stereo not drawn)	150	0.16	–	–
2.94	CN(C)CC(O)COc1ccccc1C(=O)CCc1ccccc1 (stereo not drawn)	820	7.12	–	–
